Assay results as given in patent publication US4575560A, “Insecticidal diaminoguanidine hydrazone compounds” (American Cyanamid Company, priority 1985, dated 1986).
≈ marks a conversion by molar mass, not a printed value. Structures can show the parent of a compound that is named as a salt. Where two headings read alike, the source gives them in different places.

Experiments:
[1] = tested on: Tobacco Budworm 3rd Instar; assay: Tobacco budworm secondary test, third-instar larvae on treated cotton cotyledons; type: in vivo, Heliothis virescens (Fabricus)
Southern Armyworm = assay: Southern armyworm test, third-instar larvae on treated Sieva lima bean leaves; type: in vivo, Spodoptera eridania (Cramer)
Method: Test formulations and procedures used for evaluation are as follows:
A. 100 mg of the test material is weighed, placed in a funnel over a 113 g narrow-mouth bottle, rinsed into the bottle with a 35 mL scoop of acetone, followed by a 35 mL scoop of water and another 35 mL scoop of acetone to yield 1000 ppm in 65% acetone. If the material is not soluble, it is broken up with a glass rod and used as a suspension.
B. This stock solution ("A") is used to make 300 ppm solutions or suspensions by pipetting 30 mL of "A" into a bottle containing 70 mL of 50% acetone to yield 300 ppm. Further dilutions in 50% acetone are made as required.
C. Tests requiring 10 ppm acetone solutions: 1 mL of "A" is pipetted into 99 mL of acetone to yield 10 ppm. Additional dilutions are made using 50% acetone as required.
Southern Armyworm--Spodoptera eridania (Cramer)
A Sieva lima bean plant with just the primary leaves expanded to 1.91 cm is dipped for three seconds with agitation in the "A" solution of 1000 ppm and set in the hood to dry. Following this, one leaf is placed in a 9 cm petri dish which has a moist filter paper in the bottom and 10 third-instar armyworm larvae about 1 cm long. This dish is covered and held at 80° F., and 50% r.h. After two days, mortality counts and estimates of the amount of feeding are made. Compounds showing partial kill and/or inhibition of feeding are held for an extra day for further observations.
All compounds showing activity as defined above are retested, using the second leaf on the bean plant, after an interval of seven days from original treatment, as an assay of residual activity.

Row | Structure (SMILES) | Mortality Rating Tobacco Budworm 3rd Instar ([1]; 1000 ppm) | Mortality Rating Southern Armyworm (Southern Armyworm; 10 ppm, third-instar larvae) | Mortality Rating Southern Armyworm (Southern Armyworm; 100 ppm, third-instar larvae) | Mortality Rating Southern Armyworm (Southern Armyworm; 1000 ppm, third-instar larvae) | Mortality Rating Tobacco Budworm 3rd Instar ([1]; 100 ppm) | reduced feeding (R) Tobacco Budworm 3rd Instar ([1]; 100 ppm) | reduced feeding (R) Tobacco Budworm 3rd Instar ([1]; 1000 ppm) | Mortality Rating Tobacco Budworm 3rd Instar ([1]; 10 ppm) | reduced feeding (R) Tobacco Budworm 3rd Instar ([1]; 10 ppm) | reduced feeding (R) Southern Armyworm (Southern Armyworm; 100 ppm) | reduced feeding (R) Southern Armyworm (Southern Armyworm; 1000 ppm) | LC50 (Southern Armyworm; Spodoptera eridania; read-out: LC50 Southern Armyworm) | LC50 (Southern Armyworm; Spodoptera eridania, read-out: LC50 Southern Armyworm)
1 | N=C(NN=Cc1ccc(OC(F)(F)F)cc1)NN=Cc1ccc(OC(F)(F)F)cc1 [CF3 O / B] | 7 (76-85%) | 4 (46-55%) | 9 (100%) | 9 (100%) |  |  |  |  |  |  |  |  | 
2 | CC(C)OC(=O)N(N=Cc1ccc(OC(F)(F)F)cc1)C(=N)NN=Cc1ccc(OC(F)(F)F)cc1 [CF3 O / CF3 O / -i-C3 H7] |  | 7 (76-85%) | 9 (100%) | 9 (100%) | 5 (56-65%) | R |  |  |  |  |  |  | 
3 | CCN(CC)C(=O)N(N=Cc1ccc(OC(F)(F)F)cc1)C(=N)NN=Cc1ccc(OC(F)(F)F)cc1 [CF3 O / CF3 O / C2 H5 / C2 H5] | 8 (86-99%) | 0 (No effect) | 9 (100%) | 9 (100%) |  |  |  |  |  |  |  |  | 
4 | CCOC(=O)N(N=Cc1ccc(OC(F)(F)F)cc1)C(=N)NN=Cc1ccc(OC(F)(F)F)cc1 [CF3 O / CF3 O / C2 H5] | 7 (76-85%) | 6 (66-75%) | 9 (100%) | 9 (100%) | 2 (26-35%) |  | R |  |  |  |  |  | 
5 | C=CCOC(=O)N(N=Cc1ccc(OC(F)(F)F)cc1)C(=N)NN=Cc1ccc(OC(F)(F)F)cc1 [CF3 O / CF3 O / CH2CHCH2] | 0 (No effect) | 6 (66-75%) | 8 (86-99%) | 9 (100%) |  |  | R |  |  |  |  |  | 
6 | N=C(NN=Cc1ccc(OC(F)(F)F)cc1)N(N=Cc1ccc(OC(F)(F)F)cc1)C(=O)OCC(Cl)(Cl)Cl [CF3 O / CF3 O / Cl3 CCH2] | 0 (No effect) | 9 (100%) | 9 (100%) | 9 (100%) | 1 (11-25%) | R | R |  |  |  |  |  | 
7 | N=C(NN=Cc1ccc(OC(F)(F)F)cc1)N(N=Cc1ccc(OC(F)(F)F)cc1)C(=O)OCCCl [CF3 O / CF3 O / ClCH2 CH2] | 8 (86-99%) | 5 (56-65%) | 9 (100%) | 9 (100%) | 0 (No effect) | R | R | 0 (No effect) | R |  |  |  | 
8 | CCC(C)OC(=O)N(N=Cc1ccc(OC(F)(F)F)cc1)C(=N)NN=Cc1ccc(OC(F)(F)F)cc1 (centres unmarked) [CF3 O / CF3 O / drawing 55] | 8 (86-99%) | 0 (No effect) | 9 (100%) | 9 (100%) | 0 (No effect) | R |  |  |  |  |  |  | 
9 | CCC(C)OC(=O)N(N=Cc1ccc(Cl)cc1)C(=N)NN=Cc1ccc(Cl)cc1 (centres unmarked) [Cl / Cl / drawing 56] | 0 (No effect) |  | 0 (No effect) | 9 (100%) | 0 (No effect) |  | R |  |  |  |  |  | 
10 | N=C(NN=Cc1ccc(Cl)cc1)NN=Cc1ccc(OC(F)(F)C(F)F)cc1 [Cl / HCF2 CF2 O / B] | 0 (No effect) | 0 (No effect) | 9 (100%) | 9 (100%) | 0 (No effect) |  | R |  |  |  |  |  | 
11 | N=C(NN=Cc1ccc(Cl)cc1)NN=Cc1ccc(Cl)cc1 [Cl / HCl] | 0 (No effect) | 0 (No effect) | 0 (No effect) |  |  |  |  |  |  | R | R |  | 
12 | N=C(NN=Cc1ccc(Cl)cc1)NN=Cc1ccc(Cl)cc1 [Cl / HNO3] | 0 (No effect) |  | 0 (No effect) | 9 (100%) |  |  |  |  |  |  |  |  | 
13 | CN(C)C(=O)N(N=Cc1ccc(F)cc1)C(=N)NN=Cc1ccc(F)cc1 [F / F / CH3 / CH3] | 0 (No effect) |  | 0 (No effect) | 8 (86-99%) |  |  |  |  |  |  |  |  | 
14 | CC(C)OC(=O)N(N=Cc1ccc(OC(F)(F)C(Cl)Cl)cc1)C(=N)NN=Cc1ccc(OC(F)(F)C(Cl)Cl)cc1 [HCCL2 CF2 O / HCCl2 CF2 O / -i-C3 H7] | 0 (No effect) |  | 0 (No effect) | 7 (76-85%) | 0 (No effect) | R | R |  |  |  |  |  | 
15 | N=C(NN=Cc1ccc(OC(F)(F)C(Cl)Cl)cc1)NN=Cc1ccc(OC(F)(F)C(Cl)Cl)cc1 [HCCL2 CF2 O / S] | 5 (56-65%) | 7 (76-85%) | 9 (100%) | 9 (100%) | 0 (No effect) | R |  |  |  |  |  |  | 
16 | N=C(NN=Cc1ccc(OC(F)(F)C(Cl)Cl)cc1)NN=Cc1ccc(OC(F)(F)C(Cl)Cl)cc1 [HCCl2 CF2 O / B] | 4 (46-55%) | 0 (No effect) | 0 (No effect) | 9 (100%) |  |  | R |  |  |  |  |  | 
17 | N=C(NN=Cc1ccc(OC(F)(F)C(F)F)cc1)N(N=Cc1ccc(OC(F)(F)C(F)F)cc1)C(=O)N1CCCC1 [HCF2 CF2 O / HCF2 CF2 O / (CH2)4] | 3 (36-45%) |  | 9 (100%) | 9 (100%) | 0 (No effect) |  |  |  |  |  |  |  | 
18 | CC(C)OC(=O)N(N=Cc1ccc(OC(F)(F)C(F)F)cc1)C(=N)NN=Cc1ccc(OC(F)(F)C(F)F)cc1 [HCF2 CF2 O / HCF2 CF2 O / -i-C3 H7] | 5 (56-65%) | 0 (No effect) | 9 (100%) | 9 (100%) | 0 (No effect) |  |  |  |  |  |  |  | 
19 | CCN(CC)C(=O)N(N=Cc1ccc(OC(F)(F)C(F)F)cc1)C(=N)NN=Cc1ccc(OC(F)(F)C(F)F)cc1 [HCF2 CF2 O / HCF2 CF2 O / C2 H5 / C2 H5] | 5 (56-65%) | 1 (11-25%) | 9 (100%) | 9 (100%) | 0 (No effect) |  |  | 0 (No effect) |  |  |  |  | 
20 | CCNC(=O)N(N=Cc1ccc(OC(F)(F)C(F)F)cc1)C(=N)NN=Cc1ccc(OC(F)(F)C(F)F)cc1 [HCF2 CF2 O / HCF2 CF2 O / C2 H5 / H] | 4 (46-55%) | 0 (No effect) | 9 (100%) | 9 (100%) |  |  |  |  |  |  |  | 34 µg/mL (≈ 59.8 µM) | 
21 | CNC(=O)N(N=Cc1ccc(OC(F)(F)C(F)F)cc1)C(=N)NN=Cc1ccc(OC(F)(F)C(F)F)cc1 [HCF2 CF2 O / HCF2 CF2 O / CH3 / H] | 4 (46-55%) | 0 (No effect) | 9 (100%) | 9 (100%) |  |  |  |  |  |  |  |  | 
22 | N=C(NN=Cc1ccc(OC(F)(F)C(F)F)cc1)N(N=Cc1ccc(OC(F)(F)C(F)F)cc1)C(=O)NCCCl [HCF2 CF2 O / HCF2 CF2 O / ClCH2 CH2 / H] | 6 (66-75%) | 0 (No effect) | 8 (86-99%) | 9 (100%) | 0 (No effect) |  |  | 0 (No effect) |  |  |  |  | 21 µg/mL (≈ 34.8 µM)
23 | N=C(NN=Cc1ccc(SC(F)(F)C(F)F)cc1)NN=Cc1ccc(SC(F)(F)C(F)F)cc1 [HCF2 CF2 S / B] | 0 (No effect) |  | 9 (100%) | 9 (100%) |  |  | R |  |  |  |  |  | 
24 | CC(C)OC(=O)N(N=Cc1ccc(SC(F)(F)C(F)F)cc1)C(=N)NN=Cc1ccc(SC(F)(F)C(F)F)cc1 [HCF2 CF2 S / HCF2 CF2 S / -i-C3 H7] | 5 (56-65%) |  | 9 (100%) | 9 (100%) | 0 (No effect) |  | R |  |  |  |  |  | 
